Experimental data reported in ChEMBL document CHEMBL4330132, “5-Keto-3-cyano-2,4-diaminothiophenes as selective maternal embryonic leucine zipper kinase inhibitors” (Bioorg Med Chem Lett, 2019).

Experiments:
[1] = target: Dual specificity mitogen-activated protein kinase kinase 4 (Homo sapiens) (UniProt P45985); test: Binding affinity to wild-type human partial length MEK4 (S84 to D399 residues) expressed in mammalian expression system assessed as residual binding level at 1 uM by Kinomescan method relative to control
[2] = target: Ribosomal protein S6 kinase alpha-2 (Homo sapiens) (UniProt Q15349); test: Binding affinity to wild-type human partial length C-terminal RSK3 kinase domain 2 (V403 to K700 residues) expressed in bacterial expression system assessed as residual binding level at 1 uM by Kinomescan method relative to control
[3] = target: Serine/threonine-protein kinase Nek5 (Homo sapiens) (UniProt Q6P3R8); test: Binding affinity to wild-type human partial length NEK5 (M1 to M279 residues) expressed in bacterial expression system assessed as residual binding level at 1 uM by Kinomescan method relative to control
[4] = target: High affinity nerve growth factor receptor (Homo sapiens) (UniProt P04629); test: Binding affinity to wild-type human partial length TRKA (G475 to G790 residues) expressed in mammalian expression system assessed as residual binding level at 1 uM by Kinomescan method relative to control
[5] = target: Serine/threonine-protein kinase/endoribonuclease IRE1 (Homo sapiens) (UniProt O75460); test: Binding affinity to wild-type human partial length ERN1 (S551 to E852 residues) expressed in mammalian expression system assessed as residual binding level at 1 uM by Kinomescan method relative to control
[6] = tested on: Tyrosine-protein kinase ABL1 (Homo sapiens), P00519 [T315I]; test: Binding affinity to human non-phosphorylated ABL1 T315I mutant (S229 to K512 residues) expressed in mammalian expression system assessed as residual binding level at 1 uM by Kinomescan method relative to control
[7] = target: Mitogen-activated protein kinase kinase kinase 3 (Homo sapiens) (UniProt Q99759); test: Binding affinity to wild-type human partial length MAP3K3 (E320 to Y626 residues) expressed in mammalian expression system assessed as residual binding level at 1 uM by Kinomescan method relative to control
[8] = target: Cyclin-dependent kinase 14 (Homo sapiens) (UniProt O94921); test: Binding affinity to wild-type human full length PFTK1 (M1 to H451 residues) expressed in bacterial expression system assessed as residual binding level at 1 uM by Kinomescan method relative to control
[9] = target: Serine/threonine-protein kinase Nek2 (Homo sapiens) (UniProt P51955); test: Binding affinity to wild-type human partial length NEK2 (M1 to K309 residues) expressed in bacterial expression system assessed as residual binding level at 1 uM by Kinomescan method relative to control
[10] = target: Serine/threonine-protein kinase 10 (Homo sapiens) (UniProt O94804); test: Binding affinity to wild-type human partial length LOK (E16 to V314 residues) expressed in bacterial expression system assessed as residual binding level at 1 uM by Kinomescan method relative to control
[11] = tested on: Mast/stem cell growth factor receptor Kit (Homo sapiens), P10721 [V559D,T670I]; test: Binding affinity to human partial length KIT V559D/T670I double mutant (Y545 to D952 residues) expressed in bacterial expression system assessed as residual binding level at 1 uM by Kinomescan method relative to control
[12] = tested on: Mast/stem cell growth factor receptor Kit (Homo sapiens), P10721 [UNDEFINED MUTATION]; test: Binding affinity to human partial length KIT V559D/[…] double mutant (Y545 to D952 residues) expressed in bacterial expression system assessed as residual binding level at 1 uM by Kinomescan method relative to control
[13] = target: Serine/threonine-protein kinase TBK1 (Homo sapiens) (UniProt Q9UHD2); test: Binding affinity to wild-type human full length TBK1 (M1 to L729 residues) expressed in mammalian expression system assessed as residual binding level at 1 uM by Kinomescan method relative to control
[14] = target: Ephrin type-A receptor 3 (Homo sapiens) (UniProt P29320); test: Binding affinity to wild-type human partial length EPHA3 (D604 to K889 residues) expressed in bacterial expression system assessed as residual binding level at 1 uM by Kinomescan method relative to control
[15] = target: Phosphatidylinositol 4,5-bisphosphate 3-kinase catalytic subunit delta isoform (Homo sapiens) (UniProt O00329); test: Binding affinity to wild-type human partial length PIK3CD (R108 to Q1044 residues) expressed in mammalian expression system assessed as residual binding level at 1 uM by Kinomescan method relative to control
[16] = tested on: Mast/stem cell growth factor receptor Kit (Homo sapiens), P10721 [D816H]; test: Binding affinity to human partial length KIT D816H mutant (I571 to D952 residues) expressed in mammalian expression system assessed as residual binding level at 1 uM by Kinomescan method relative to control
[17] = target: cGMP-dependent protein kinase 1 (Homo sapiens) (UniProt Q13976); test: Binding affinity to wild-type human partial length PRKG1 (L339 to F686 residues) expressed in bacterial expression system assessed as residual binding level at 1 uM by Kinomescan method relative to control
[18] = target: Serine/threonine-protein kinase SIK3 (Homo sapiens) (UniProt Q9Y2K2); test: Binding affinity to wild-type human partial length QSK (A90 to L395 residues) expressed in mammalian expression system assessed as residual binding level at 1 uM by Kinomescan method relative to control
[19] = target: Serine/threonine-protein kinase 35 (Homo sapiens) (UniProt Q8TDR2); test: Binding affinity to wild-type human partial length STK35 (G182 to A534 residues) expressed in bacterial expression system assessed as residual binding level at 1 uM by Kinomescan method relative to control
[20] = target: Mitogen-activated protein kinase 9 (Homo sapiens) (UniProt P45984); test: Binding affinity to wild-type human full length JNK2 (M1 to Q382 residues) expressed in mammalian expression system assessed as residual binding level at 1 uM by Kinomescan method relative to control
[21] = target: Calcium/calmodulin-dependent protein kinase kinase 2 (Homo sapiens) (UniProt Q96RR4); test: Binding affinity to wild-type human partial length CAMKK2 (D65 to V471 residues) expressed in bacterial expression system assessed as residual binding level at 1 uM by Kinomescan method relative to control
[22] = tested on: Tyrosine-protein kinase ABL1 (Homo sapiens), P00519 [H396P]; test: Binding affinity to human non-phosphorylated ABL1 H396P mutant (S229 to K512 residues) expressed in mammalian expression system assessed as residual binding level at 1 uM by Kinomescan method relative to control
[23] = target: Protein kinase C delta type (Homo sapiens) (UniProt Q05655); test: Binding affinity to wild-type human partial length PRKCD (Q328 to D676 residues) expressed in bacterial expression system assessed as residual binding level at 1 uM by Kinomescan method relative to control
[24] = target: Mitogen-activated protein kinase kinase kinase 13 (Homo sapiens) (UniProt O43283); test: Binding affinity to wild-type human full length LZK (M1 to W966 residues) expressed in mammalian expression system assessed as residual binding level at 1 uM by Kinomescan method relative to control

Chain of Serine/threonine-protein kinase 10 (Homo sapiens) (O94804 whole entry, looked up, the tested form may be a part): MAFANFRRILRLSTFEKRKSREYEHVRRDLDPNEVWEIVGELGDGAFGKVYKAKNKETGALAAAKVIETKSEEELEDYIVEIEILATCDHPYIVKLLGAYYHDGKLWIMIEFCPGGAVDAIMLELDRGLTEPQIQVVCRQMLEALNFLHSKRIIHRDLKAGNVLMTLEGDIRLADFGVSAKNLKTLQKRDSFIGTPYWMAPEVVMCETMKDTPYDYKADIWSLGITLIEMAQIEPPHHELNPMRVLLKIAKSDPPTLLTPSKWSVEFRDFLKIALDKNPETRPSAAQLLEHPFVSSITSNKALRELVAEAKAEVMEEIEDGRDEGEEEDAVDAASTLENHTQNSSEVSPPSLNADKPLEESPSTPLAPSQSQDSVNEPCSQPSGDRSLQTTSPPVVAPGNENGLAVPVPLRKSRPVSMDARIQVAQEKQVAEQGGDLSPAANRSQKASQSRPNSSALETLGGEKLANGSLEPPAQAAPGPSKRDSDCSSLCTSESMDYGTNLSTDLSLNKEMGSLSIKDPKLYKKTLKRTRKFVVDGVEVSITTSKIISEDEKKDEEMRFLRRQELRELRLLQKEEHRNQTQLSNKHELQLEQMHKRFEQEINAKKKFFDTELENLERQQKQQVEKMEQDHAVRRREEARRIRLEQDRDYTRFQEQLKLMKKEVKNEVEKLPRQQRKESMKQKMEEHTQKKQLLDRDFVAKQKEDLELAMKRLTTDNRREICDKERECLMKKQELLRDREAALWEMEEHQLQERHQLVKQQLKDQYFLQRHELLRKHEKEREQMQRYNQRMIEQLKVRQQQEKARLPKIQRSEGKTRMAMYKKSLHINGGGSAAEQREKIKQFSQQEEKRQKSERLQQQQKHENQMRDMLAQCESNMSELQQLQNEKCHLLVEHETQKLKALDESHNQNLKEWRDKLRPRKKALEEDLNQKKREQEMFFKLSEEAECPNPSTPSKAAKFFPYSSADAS
Chain of Mast/stem cell growth factor receptor Kit (Homo sapiens), P10721 [UNDEFINED MUTATION] (P10721 whole entry, looked up, stated change not applied, the tested form may be a part): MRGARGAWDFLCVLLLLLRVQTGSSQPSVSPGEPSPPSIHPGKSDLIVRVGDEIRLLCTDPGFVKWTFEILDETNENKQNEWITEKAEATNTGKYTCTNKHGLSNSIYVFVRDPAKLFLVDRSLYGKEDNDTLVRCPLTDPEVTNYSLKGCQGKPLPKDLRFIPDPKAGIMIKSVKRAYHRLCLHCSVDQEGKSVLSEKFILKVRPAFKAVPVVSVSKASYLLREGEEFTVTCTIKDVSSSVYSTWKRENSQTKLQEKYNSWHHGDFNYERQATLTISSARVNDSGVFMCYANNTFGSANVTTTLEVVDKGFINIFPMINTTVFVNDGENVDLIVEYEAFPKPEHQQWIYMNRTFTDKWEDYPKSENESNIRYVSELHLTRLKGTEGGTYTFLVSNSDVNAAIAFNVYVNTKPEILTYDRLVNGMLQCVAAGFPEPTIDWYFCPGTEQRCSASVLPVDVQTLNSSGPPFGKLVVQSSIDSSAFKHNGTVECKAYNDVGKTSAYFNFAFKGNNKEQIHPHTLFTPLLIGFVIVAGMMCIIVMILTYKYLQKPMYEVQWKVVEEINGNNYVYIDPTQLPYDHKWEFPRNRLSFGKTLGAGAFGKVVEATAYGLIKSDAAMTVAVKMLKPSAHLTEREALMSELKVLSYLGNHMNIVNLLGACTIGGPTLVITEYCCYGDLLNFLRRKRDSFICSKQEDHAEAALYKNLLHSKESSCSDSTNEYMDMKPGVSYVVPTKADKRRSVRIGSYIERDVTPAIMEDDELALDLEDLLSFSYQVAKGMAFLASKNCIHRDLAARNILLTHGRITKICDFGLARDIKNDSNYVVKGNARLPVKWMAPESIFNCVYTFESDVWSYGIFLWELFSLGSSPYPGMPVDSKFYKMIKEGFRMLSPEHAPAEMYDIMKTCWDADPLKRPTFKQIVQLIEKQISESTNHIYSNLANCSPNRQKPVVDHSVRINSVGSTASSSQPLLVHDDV
Chain of Mitogen-activated protein kinase 9 (Homo sapiens) (P45984 whole entry, looked up, the tested form may be a part): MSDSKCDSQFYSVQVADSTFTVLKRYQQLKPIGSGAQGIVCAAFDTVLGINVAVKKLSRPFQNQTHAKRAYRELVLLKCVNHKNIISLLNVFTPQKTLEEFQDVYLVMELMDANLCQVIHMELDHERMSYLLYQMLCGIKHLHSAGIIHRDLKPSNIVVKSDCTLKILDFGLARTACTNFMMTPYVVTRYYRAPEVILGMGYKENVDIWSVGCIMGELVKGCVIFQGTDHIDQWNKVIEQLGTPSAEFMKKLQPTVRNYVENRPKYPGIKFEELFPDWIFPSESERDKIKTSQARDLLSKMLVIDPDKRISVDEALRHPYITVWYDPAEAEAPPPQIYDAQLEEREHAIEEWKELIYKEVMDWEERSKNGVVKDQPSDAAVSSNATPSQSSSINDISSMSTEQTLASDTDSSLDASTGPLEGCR
Chain of Serine/threonine-protein kinase TBK1 (Homo sapiens) (Q9UHD2 whole entry, the tested form may be a part): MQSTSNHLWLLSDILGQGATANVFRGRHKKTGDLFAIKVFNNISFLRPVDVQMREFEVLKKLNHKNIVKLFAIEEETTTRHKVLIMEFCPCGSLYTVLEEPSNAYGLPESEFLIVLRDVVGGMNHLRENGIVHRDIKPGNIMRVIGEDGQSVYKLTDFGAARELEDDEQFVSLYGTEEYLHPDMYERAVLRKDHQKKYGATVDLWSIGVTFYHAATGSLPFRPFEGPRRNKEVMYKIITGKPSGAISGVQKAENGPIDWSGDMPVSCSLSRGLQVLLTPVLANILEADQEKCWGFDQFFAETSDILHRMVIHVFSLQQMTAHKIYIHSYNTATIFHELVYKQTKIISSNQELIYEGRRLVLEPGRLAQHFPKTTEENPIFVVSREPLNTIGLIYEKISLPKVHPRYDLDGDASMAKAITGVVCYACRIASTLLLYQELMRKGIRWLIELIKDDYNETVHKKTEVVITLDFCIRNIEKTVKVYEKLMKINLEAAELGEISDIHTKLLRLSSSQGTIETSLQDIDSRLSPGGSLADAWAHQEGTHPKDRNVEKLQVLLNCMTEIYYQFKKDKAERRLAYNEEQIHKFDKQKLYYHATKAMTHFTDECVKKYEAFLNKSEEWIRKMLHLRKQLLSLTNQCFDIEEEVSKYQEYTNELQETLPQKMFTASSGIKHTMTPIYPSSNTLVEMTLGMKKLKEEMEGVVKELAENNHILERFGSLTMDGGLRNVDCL
Chain of Serine/threonine-protein kinase SIK3 (Homo sapiens) (Q9Y2K2 whole entry, looked up, the tested form may be a part): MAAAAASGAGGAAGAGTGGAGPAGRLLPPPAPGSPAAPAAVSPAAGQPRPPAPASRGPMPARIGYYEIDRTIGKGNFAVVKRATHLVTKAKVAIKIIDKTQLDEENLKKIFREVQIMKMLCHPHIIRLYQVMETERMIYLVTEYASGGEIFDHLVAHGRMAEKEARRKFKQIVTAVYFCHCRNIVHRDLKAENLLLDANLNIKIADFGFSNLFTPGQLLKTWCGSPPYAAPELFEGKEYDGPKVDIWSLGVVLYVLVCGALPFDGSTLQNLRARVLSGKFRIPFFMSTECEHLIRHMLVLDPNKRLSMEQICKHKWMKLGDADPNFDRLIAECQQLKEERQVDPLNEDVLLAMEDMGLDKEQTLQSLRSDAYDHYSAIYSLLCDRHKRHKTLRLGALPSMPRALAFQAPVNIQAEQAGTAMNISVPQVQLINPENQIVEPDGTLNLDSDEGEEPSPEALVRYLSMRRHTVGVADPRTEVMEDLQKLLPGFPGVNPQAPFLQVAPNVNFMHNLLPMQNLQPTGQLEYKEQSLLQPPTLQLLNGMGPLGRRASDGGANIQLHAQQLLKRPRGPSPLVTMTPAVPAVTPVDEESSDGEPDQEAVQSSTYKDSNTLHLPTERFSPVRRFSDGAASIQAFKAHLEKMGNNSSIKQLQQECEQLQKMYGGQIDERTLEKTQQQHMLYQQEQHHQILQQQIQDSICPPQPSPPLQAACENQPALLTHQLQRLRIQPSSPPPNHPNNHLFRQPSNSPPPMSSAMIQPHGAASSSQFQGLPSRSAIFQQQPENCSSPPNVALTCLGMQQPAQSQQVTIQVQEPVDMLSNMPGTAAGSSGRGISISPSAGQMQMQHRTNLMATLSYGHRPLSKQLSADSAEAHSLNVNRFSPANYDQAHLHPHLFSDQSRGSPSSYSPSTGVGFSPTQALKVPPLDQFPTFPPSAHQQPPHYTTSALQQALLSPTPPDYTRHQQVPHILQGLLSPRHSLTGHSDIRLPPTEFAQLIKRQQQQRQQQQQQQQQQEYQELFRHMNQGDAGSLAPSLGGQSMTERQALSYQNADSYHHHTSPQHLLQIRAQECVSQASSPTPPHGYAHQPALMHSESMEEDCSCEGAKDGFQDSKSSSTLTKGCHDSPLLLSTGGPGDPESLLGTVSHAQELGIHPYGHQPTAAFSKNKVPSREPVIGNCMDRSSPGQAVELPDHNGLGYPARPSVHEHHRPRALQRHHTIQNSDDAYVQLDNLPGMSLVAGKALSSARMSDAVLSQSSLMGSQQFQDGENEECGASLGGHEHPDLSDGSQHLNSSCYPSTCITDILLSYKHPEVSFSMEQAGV
Chain of Cyclin-dependent kinase 14 (Homo sapiens) (O94921 whole entry, the tested form may be a part): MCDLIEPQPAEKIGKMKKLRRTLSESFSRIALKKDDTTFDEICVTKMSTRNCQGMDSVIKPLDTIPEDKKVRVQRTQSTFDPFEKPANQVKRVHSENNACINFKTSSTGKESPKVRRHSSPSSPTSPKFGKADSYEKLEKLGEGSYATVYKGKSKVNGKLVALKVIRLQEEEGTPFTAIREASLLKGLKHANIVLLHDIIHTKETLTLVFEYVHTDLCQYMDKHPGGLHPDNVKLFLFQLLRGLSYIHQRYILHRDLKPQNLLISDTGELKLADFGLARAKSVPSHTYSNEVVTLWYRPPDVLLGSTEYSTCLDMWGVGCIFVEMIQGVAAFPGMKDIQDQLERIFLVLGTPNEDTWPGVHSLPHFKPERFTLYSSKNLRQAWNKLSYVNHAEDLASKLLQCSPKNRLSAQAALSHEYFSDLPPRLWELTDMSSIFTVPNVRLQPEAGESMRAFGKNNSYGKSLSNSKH

Question: What does the source list for CC(C)Nc1sc(C(=O)c2ccc(Cl)s2)c(N)c1C#N?
Answer: Activity [1]: 82%; Activity [2]: 98%; Activity [3]: 91%; Activity [4]: 92%; Activity [5]: 100%; Activity [6]: 100%; Activity [7]: 100%; Activity [8]: 93%; Activity [9]: 85%; Activity [10]: 82%; Activity [11]: 87%; Activity [12]: 57%; Activity [13]: 97%; Activity [14]: 72%; Activity [15]: 78%; Activity [16]: 77%; Activity [17]: 100%; Activity [18]: 100%; Activity [19]: 80%; Activity [20]: 100%; Activity [21]: 76%; Activity [22]: 100%; Activity [23]: 72%; Activity [24]: 92%
